Each structure is given as a SMILES string. In brackets after ≈: the same amount, converted by molar mass. A value given as a limit tells only on which side of the number the result lay.

Broadly, the LD50 is the dose expected to kill half of the subjects tested. The low end stands for a more toxic substance, the high end for a less toxic substance.

In data set [1] the test system is lymphoma cells of mice. The conditions noted are these: cited from earlier work.
For data set [2], the system named is Pseudomonas aeruginosa CNCM A22. The data set can be described thus: Bactericidal activity (MBC), strain 3. It counts as cell-based. The note with it: CNCMA22, 20 min, strain 3, 20 minutes of contact, read-out: Minimum bactericidal concentration (MBC). From the text: (§1) The bactericidal activity of the products according to the invention has been analyzed on various strains by the method described hereafter:
(§2) A bacterial inoculum is placed in contact with different dilutions of the product to be tested, and this for a limited period of time. At the end of contact, an aliquot part of the mixture bacterial suspension/product is deposited on the surface of an agar culture medium containing an agent neutralizing the antibacterial activity of the product. The bactericidal concentration retained is the smallest concentration of the product from which bacteria stop growing. Said concentration is expressed in μg/ml.
(§3) The bacterial strains selected for the analysis are:
3--Pseudomonas aeruginosa CNCM A22;
(§4) The second strain is supported on a Worgel Fergusson medium, the other strains being supported on Tryptic Soy Agar-Difco (TSA) commercialized by Difco.
(§5) After a 24-hour culture period at 37° C., the microbial growth is collected by means of glass beads and of 10 ml of diluent containing 1 g of tryptone and 8.5 g of sodium chloride in 1000 ml of distilled water. The formed suspension is stirred and the percentage of light transmission at 620 nm is measured with a spectrophotometer:
(§6) The bacterial inoculum corresponds to a 1/20th dilution of this bacterial suspension.
(§7) Plates equipped with cupules receive different dilutions of the product to be analyzed. These dilutions are placed in contact with the different bacterial suspensions by means of a multiple-center inoculator. After 20 minutes of contact, aliquot parts are transferred by means of said inoculator on the surface of an agar medium (TSA) in Petri dishes, containing an activity-neutralizing agent, namely 20 g of lubrol W, 25 g of Tween 80 and 2.5 g of sodium thiosulfate in 1000 ml of TSA (Difco). The efficiency of the neutralizing agent is controlled for each product to be analyzed by depositing on the surface of the culture medium an aliquot part of the dilution of the product to be analyzed. After drying, the corresponding inoculum is deposited in the same place. An inoculum control is performed on an agar medium with or without neutralizing agent. Readings are taken after 48 hours of incubation at 37° C.

Data set [3] deals with Staphylococcus aureus CNCM 53154. The data set can be described thus: Bactericidal activity (MBC), strain 5. It counts as cell-based. The note with it: CNCM53154, 20 min, strain 5, 20 minutes of contact, read-out: Minimum bactericidal concentration (MBC).
Excerpt: as §1, §2, §3
5--Staphylococcus aureus CNCM 53154.
as §4, §5, §6, §7

Data set [4] has as its system guinea-pig skin. The data set can be described thus: Preliminary skin tolerance in the guinea-pig. It counts as in vivo. The note with it: 0.2 ml on shorn skin once a day, six days out of seven, three weeks. As for the experimental part:
(§8) The tolerance of the products according to the invention was tested in the guinea-pig. The animals are shorn on both sides of the middle line of the back, the shearing being kept up every other day. Batches of 6 animals receive, on the shorn part, 0.2 ml of an aqueous or alcoholic solution of the product according to the invention. When these products are in alcoholic solution, one control batch of animals receives the alcohol on one side.
To study the preliminary skin tolerance, the treatment is applied once a day, six days out of seven, for three weeks. The observations made of the skin are concerned with the presence of erythema, skin eruptions or hyperkeratosis, the intensity of which is graduated according to a preset scale.

The test system of data set [5] is Encapsulated klebsiella pneumoniae R030. Kind of data set: Bactericidal activity (MBC), strain 2. It counts as cell-based. The conditions noted are these: 20 min, strain 2, 20 minutes of contact, read-out: Minimum bactericidal concentration (MBC).
Excerpt: as §1, §2, §3
2--Encapsulated klebsiella pneumoniae R030;
as §4, §5, §6, §7

Data set [6] relates to Candida tropicalis 3834. Kind of data set: Antifungal activity (MFC), strain 2. The conditions noted are these: 20 min; yeast strain 2; read-out: Minimum fongicidal concentration (MFC). The class given is cell-based.
Excerpt: as §2, §7
(§9) The antifungal activity of the products according to the invention was also determined with the aforedescribed method.
(§10) The fungal strains selected for the analysis are:
2--Candida tropicalis 3834;
(§11) These strains are supported on a Sabouraud Dextrose agar medium commercialized by Difco; the technique used is the same as that used in the analysis of the antibacterial activity. After 48 hours of culture at 37° C., the microbial growth is collected with glass beads and 5 ml of diluent containing 1 g of tryptone and 8.5 g of sodium chloride in 1000 ml of distilled water; 5 ml of the diluent are then added. […] A 1/100th dilution of this suspension, observed between slides under a microscope 40-lens, should show 10 cells per frame, this corresponding to 1,000,000 yeasts per ml.

Data set [7] concerns guinea-pig skin. The data set can be described thus: Skin sensitization test in the guinea-pig. The class given is in vivo. The conditions noted are these: one week treatment after two weeks' rest. As for the experimental part: as §8, with “side. The skin sensitization test is performed on the same animals after two weeks' rest. The treatment lasts one week, it is identical to the preceding one. The evaluation is based on the same criteria and on the same scale as used to determine the local tolerance.” for “side.”

The test system of data set [8] is Candida albicans CNCM 1180. Kind of data set: Antifungal activity (MFC), strain 1. The class given is cell-based. The note with it: 20 min; yeast strain 1; read-out: Minimum fongicidal concentration (MFC).
Excerpt: as §2, §7, §9, §10
1--Candida albicans CNCM 1180;
as §11

The nature of data set [9]: Acute toxicity by oral route in mice. The note with it: mouse, in vivo, per os, male CD1 mice, 14 days observation. The protocol:
Acute toxicity was tested by oral route in mice. This test was carried out with male mice of CD1 strain, obtained from the Charles Reever breeding farm. Each batch was composed of 5 animals of body weight varying between 24 and 30 g kept in the same cage. The animals were kept fasting for 6 hours before the treatment. For every test, the product, placed in suspension in a 10% solution of gum arabic, was administered by forcible feeding with an oesophageal probe. Food was then served to the animals 4 hours after the forcible feeding and the animals were kept under observation for a period of 14 days after the administration. During that period, the death rate is recorded for each batch of animals used in the experiment and, wherever possible, the LD50 is determined by the method of J. T. Litchfield and F. Wilcoxon, J. Pharmacol. 1949, 95, 99-113.
The results are given in mg of substance tested per kg of body weight. They are compiled in Table III below.

Data set [10] concerns guinea-pig. The data set can be described thus: Phototoxic or photoallergic effect on the guinea-pig. It counts as in vivo. From the text:
The products according to the invention have also been tested for a phototoxic or photoallergic effect on the guina-pig. The technique used is that of J. Unkovic, G. Mazue and J. Girard, in "Sciences et Techniques de l'Animal de Laboratoire", 1983, 8 (3), 149-160. This is an adaptation of the techniques described by L. C. Harber et al., Arch. Dermatol., 1967, 96, 646-656 and L. J. Vinson et al., Arch. Dermatol., 1966, 17, 123-130.

In data set [11] the test system is Escherichia Coli CNCM 54125. The data set can be described thus: Bactericidal activity (MBC), strain 1. The class given is cell-based. The conditions noted are these: 20 min, strain 1, 20 minutes of contact, read-out: Minimum bactericidal concentration (MBC).
Excerpt: as §1, §2, §3
1--Escherichia Coli CNCM 54125;
as §4, §5, §6, §7

Data set [12] relates to Candida parakruzei 3918. The data set can be described thus: Antifungal activity (MFC), strain 3. The conditions noted are these: 20 min; yeast strain 3; read-out: Minimum fongicidal concentration (MFC). It counts as cell-based.
Excerpt: as §2, §7, §9, §10
3--Candida parakruzei 3918;
as §11

In data set [13] the test system is Streptococcus faecalis CNCM 5855. Kind of data set: Bactericidal activity (MBC), strain 4. The note with it: Enterococcus faecalis, CNCM5855, 20 min; strain 4, 20 minutes of contact; read-out: Minimum bactericidal concentration (MBC). The class given is cell-based.
Excerpt: as §1, §2, §3
4--Streptococcus faecalis CNCM 5855;
as §4, §5, §6, §7

Data set [14] concerns Torulopsis glabrata 072023. Kind of data set: Antifungal activity (MFC), strain 4. It counts as cell-based. The conditions noted are these: 20 min; yeast strain 4; read-out: Minimum fongicidal concentration (MFC).
Excerpt: as §2, §7, §9, §10, §11

With `OCCc1ccc2ccccc2c1` [2-naphtyl ethanol], in data set [1], the “effect on the cellular division of the lymphoma cells” value is recorded as “inhibits the cellular division of the lymphoma cells of mice”.
Take `OCC(CCN1CCC(Cc2ccccc2)CC1)c1cccc2ccccc12` (stereo not shown) [SR 43 383 A]: the MBC in [2], in data set [3], in data set [5], in data set [11] and in data set [13] was 100 µg/mL (≈ 268 µM) throughout. The “products found to have a bad tolerance” value in [4] is “None”. Besides, the MFC in data set [6] was 100 µg/mL (≈ 268 µM); in [8], 100 µg/mL (≈ 268 µM); in data set [12], 100 µg/mL (≈ 268 µM); in data set [14] it was 500 µg/mL (≈ 1340 µM). The “products found to have a sensibilizing effect” value in data set [7] is reported as “None”. For the same compound, the LD50 at 336 h in [9] is 1180 mg/kg. For the same compound, the “products found to have a phototoxic or photoallergic effect” value in data set [10] is “None”.
With `CC(C)N(CCC(CO)c1cccc2ccccc12)Cc1ccccc1` (stereo not shown) [SR 43 292 A], the MBC in [2], in data set [3], in data set [5], in data set [11] and in [13] was 300 µg/mL (≈ 863 µM) in each case. Besides, the “products found to have a bad tolerance” value in data set [4] is recorded as “None”. Further, the MFC was 1000 µg/mL (≈ 2880 µM) in data set [6], 1000 µg/mL (≈ 2880 µM) in data set [8], 1000 µg/mL (≈ 2880 µM) in data set [12] and 2000 µg/mL (≈ 5760 µM) in [14]. Further, the “products found to have a sensibilizing effect” value in data set [7] is “None”. In addition, the LD50 at 336 h in data set [9] was in the range of 500 to 750 mg/kg. Moreover, the “products found to have a phototoxic or photoallergic effect” value in [10] is “None”.
Consider `CC1CCN(CCCCCCC(CO)c2cccc3ccccc23)CC1` (stereo not shown) [SR 43 293 A], for which the MBC in data set [2], in data set [3], in [5], in data set [11] and in [13] was 200 µg/mL (≈ 566 µM) each time. In data set [4], the “products found to have a bad tolerance” value is reported as “None”. The MFC in [6] is 200 µg/mL (≈ 566 µM); in data set [8], 500 µg/mL (≈ 1410 µM); in [12] it was 500 µg/mL (≈ 1410 µM); in data set [14] it was 1000 µg/mL (≈ 2830 µM). For the same compound, the “products found to have a sensibilizing effect” value in data set [7] is “None”. In addition, in data set [9], the LD50 at 336 h is at most 250 mg/kg. In data set [10], the “products found to have a phototoxic or photoallergic effect” value is “None”.

Values taken from patent US4820717A, “Antimicrobial aromatic derivatives substituted by an (omega amino) alkanol group and compositions containing them” (priority 1985, dated 1989).
